Source: PubChem BioAssay (NCI)
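Dose response: 5 concentrations. Exposure: 48 h. Format: 96-well plates. Endpoint: linear interpolation; highest concentration if not reached. Abbreviation: GI50, concentration required for 50% inhibition of growth. TGI: total growth inhibition.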

How the values were obtained:
Test in all cases: NCI tumour cell line growth inhibition, 48 h
[1] = system: IGROV1 ovarian
[2] = system: RXF 393 renal
[3] = system: SK-OV-3 ovarian
[4] = system: SF-539 CNS
[5] = system: NCI-H522 lung
[6] = system: SK-MEL-2 melanoma
[7] = system: SF-295 CNS
[8] = system: SK-MEL-5 melanoma
[9] = system: OVCAR-5 ovarian
[10] = system: MALME-3M melanoma
[11] = system: HS 578T breast
[12] = system: TK-10 renal
[13] = system: HOP-62 NSCLC
[14] = system: UACC-62 melanoma
[15] = system: HCT-15 colon
[16] = system: M14 melanoma
[17] = system: NCI-H460 lung
[18] = system: A549 NSCLC
[19] = system: UACC-257 melanoma
[20] = system: OVCAR-4 ovarian
[21] = system: UO-31 renal
[22] = system: CAKI-1 renal
[23] = system: KM12 colon
[24] = system: RPMI-8226 leukemia
[25] = system: CCRF-CEM leukemia
[26] = system: ACHN renal
[27] = system: SNB-19 CNS
[28] = system: MDA-MB-435
[29] = system: T-47D breast
[30] = system: A498 renal
[31] = system: SNB-75 CNS
[32] = system: SF-268 CNS
[33] = system: HL-60(TB) leukemia
[34] = system: HCC-2998 colon
[35] = system: U251 CNS
[36] = system: SR leukemia
[37] = system: SW-620 colon
[38] = system: HCT-116 colon
[39] = system: HOP-92 NSCLC
[40] = system: MDA-MB-231 breast
[41] = system: BT-549 breast
[42] = system: MOLT-4 leukemia
[43] = system: PC-3 prostate
[44] = system: NCI-H226 lung
[45] = system: K-562 leukemia
[46] = system: SK-MEL-28 melanoma
[47] = system: MCF7 breast
[48] = system: LOX IMVI melanoma
[49] = system: NCI-H23 lung
[50] = system: NCI/ADR-RES ovarian
[51] = system: OVCAR-3 ovarian
[52] = system: 786-0 renal
[53] = system: SN12C renal
[54] = system: DU-145 prostate
[55] = system: COLO 205 colon
[56] = system: OVCAR-8 ovarian
[57] = system: HT29 colon

In the case of `Nc1c(C(=O)c2cccc(CCCN3CCOCC3)c2)cnn1-c1ccc(F)cc1`, the GI50 [1] is reported as > 25 µM, the TGI [1] is reported as > 25 µM and the GI50 [2] is reported as > 25 µM. The TGI [2] was > 25 µM, the GI50 [3] was > 25 µM and the TGI [3] was > 25 µM. For the same molecule, the GI50 [4] was > 25 µM, the TGI [4] was > 25 µM and the GI50 [5] was > 25 µM. For the same molecule, the TGI [5] was > 25 µM, the GI50 [6] was > 25 µM and the TGI [6] was > 25 µM. For the same molecule, the GI50 [7] was > 25 µM, the TGI [7] was > 25 µM and the GI50 [8] was 24.7 µM. For the same molecule, the TGI [8] was > 25 µM, the GI50 [9] was > 25 µM and the TGI [9] was > 25 µM. The GI50 [10] was > 25 µM, the TGI [10] was > 25 µM and the GI50 [11] was > 25 µM. The TGI [11] was > 25 µM, the GI50 [12] was > 25 µM and the TGI [12] was > 25 µM. The GI50 [13] was > 25 µM, the TGI [13] was > 25 µM and the GI50 [14] was > 25 µM. For the same molecule, the TGI [14] was > 25 µM, the GI50 [15] was > 25 µM and the TGI [15] was > 25 µM. For the same molecule, the GI50 [16] was > 25 µM, the TGI [16] was > 25 µM and the GI50 [17] was > 25 µM. For the same molecule, the TGI [17] was > 25 µM, the GI50 [18] was > 25 µM and the TGI [18] was > 25 µM. For the same molecule, the GI50 [19] was > 25 µM, the TGI [19] was > 25 µM and the GI50 [20] was > 25 µM. The TGI [20] was > 25 µM, the GI50 [21] was > 25 µM and the TGI [21] was > 25 µM. For the same molecule, the GI50 [22] was > 25 µM, the TGI [22] was > 25 µM and the GI50 [23] was > 25 µM. For the same molecule, the TGI [23] was > 25 µM, the GI50 [24] was > 25 µM and the TGI [24] was > 25 µM. The GI50 [25] was > 25 µM, the TGI [25] was > 25 µM and the GI50 [26] was > 25 µM. For the same molecule, the TGI [26] was > 25 µM, the GI50 [27] was > 25 µM and the TGI [27] was > 25 µM. The GI50 [28] was > 25 µM, the TGI [28] was > 25 µM and the GI50 [29] was > 23.7 µM. The TGI [29] was > 25 µM, the GI50 [30] was > 17.6 µM and the TGI [30] was > 25 µM. For the same molecule, the GI50 [31] was > 25 µM, the TGI [31] was > 25 µM and the GI50 [32] was > 25 µM. For the same molecule, the TGI [32] was > 25 µM, the GI50 [33] was > 25 µM and the TGI [33] was > 25 µM. For the same molecule, the GI50 [34] was > 25 µM, the TGI [34] was > 25 µM and the GI50 [35] was > 25 µM. The TGI [35] was > 25 µM, the GI50 [36] was > 25 µM and the TGI [36] was > 25 µM. For the same molecule, the GI50 [37] was > 25 µM, the TGI [37] was > 25 µM and the GI50 [38] was > 25 µM. The TGI [38] was > 25 µM, the GI50 [39] was 7.01 µM and the TGI [39] was > 25 µM. The GI50 [40] was > 25 µM, the TGI [40] was > 25 µM and the GI50 [41] was > 25 µM. The TGI [41] was > 25 µM, the GI50 [42] was > 25 µM and the TGI [42] was > 25 µM. The GI50 [43] was > 25 µM, the TGI [43] was > 25 µM and the GI50 [44] was > 25 µM. For the same molecule, the TGI [44] was > 25 µM, the GI50 [45] was > 25 µM and the TGI [45] was > 25 µM. For the same molecule, the GI50 [46] was > 25 µM, the TGI [46] was > 25 µM and the GI50 [47] was > 25 µM. The TGI [47] was > 25 µM, the GI50 [48] was > 25 µM and the TGI [48] was > 25 µM. For the same molecule, the GI50 [49] was > 25 µM, the TGI [49] was > 25 µM and the GI50 [50] was > 25 µM. The TGI [50] was > 25 µM, the GI50 [51] was > 25 µM and the TGI [51] was > 25 µM. The GI50 [52] was > 25 µM, the TGI [52] was > 25 µM and the GI50 [53] was > 25 µM. The TGI [53] was > 25 µM, the GI50 [54] was > 25 µM and the TGI [54] was > 25 µM. The GI50 [55] was > 25 µM, the TGI [55] was > 25 µM and the GI50 [56] was > 25 µM. For the same molecule, the TGI [56] was > 25 µM, the GI50 [57] was > 25 µM and the TGI [57] was > 25 µM.
